Structures are written as SMILES. Where only a bound is given, the exact number is not on record here.

For one experiment, the target named is T1, IRAK4 (Homo sapiens, UniProt Q9NWZ3).
T1 construct: purchased CARNA Bioscience 09-145
T1 sequence (Q9NWZ3 1-460): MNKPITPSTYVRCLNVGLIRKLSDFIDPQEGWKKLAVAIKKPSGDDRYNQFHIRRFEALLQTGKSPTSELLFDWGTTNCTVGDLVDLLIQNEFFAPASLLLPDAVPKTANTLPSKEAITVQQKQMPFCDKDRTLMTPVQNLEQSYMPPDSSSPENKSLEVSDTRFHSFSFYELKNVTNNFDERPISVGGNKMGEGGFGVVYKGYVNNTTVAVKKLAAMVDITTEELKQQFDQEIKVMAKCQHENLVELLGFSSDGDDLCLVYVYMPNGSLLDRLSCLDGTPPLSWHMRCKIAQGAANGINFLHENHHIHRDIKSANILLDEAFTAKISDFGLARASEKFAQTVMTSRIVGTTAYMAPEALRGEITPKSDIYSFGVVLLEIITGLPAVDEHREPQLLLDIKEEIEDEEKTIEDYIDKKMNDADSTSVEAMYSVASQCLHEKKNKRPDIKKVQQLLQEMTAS
Kind of experiment: IRAK-4 activity inhibition assay (Caliper, Peptide 8, 37 μM ATP). Type of experiment: biochemical. Particulars: 3.5 nM IRAK4, 1.5 μM Peptide 8, 37 μM ATP, 28° C. 40 minutes; read-out: IRAK-4 activity inhibition IC50. As to the method: A 1× kinase base buffer was prepared from 50 mM HEPES, pH 7.5 and 0.0015% Brij-35. A stop buffer was prepared from 100 mM HEPES, pH 7.5, 0.015% Brij-35, 0.2% Coating Reagent #3, and 50 mM EDTA.
Test compound was diluted to 50× of the final desired highest inhibitor concentration in reaction by 100% DMSO. 100 ul of this compound dilution was transferred to a well in a 96-well plate.
Test compound was serially diluted by transferring 30 μl to 60 μl of 100% DMSO in the next well and so forth for a total of 10 concentrations. 100 μl of 100% DMSO was added to two empty wells for no compound control and no enzyme control in the same 96-well plate.
A new 96-well plate was marked as intermediate plate. 5 μl of compound serial dilution was transferred from source plate to the corresponding wells of the intermediate plate. 45 μl of 1× kinase base buffer (KB buffer) was added to each well of the intermediate plate. The intermediate plate was placed for 10 min on a shaker.
5 μl of each well was transferred from the 96-well intermediate plate to a 384-well plate in duplicates. […] A2 of the 96-well plate is transferred to A3 and A4 of the 384-well plate, and so on.
IRAK4 and DTT in 1× kinase base buffer was added.
Assay plate already contained 5 μl of compound in 10% DMSO. Added 10 μl of 2.5× enzyme solution to each well of the 384-well assay plate, except no enzyme control wells. […] Added 10 μl of 1× kinase base buffer to no enzyme control wells in the assay plate. Incubated at room temperature for 10 min.
Added 10 μl of 2.5× peptide solution to each well of the 384-well assay plate. […] Incubated at 28° C. for 40 minutes. Added 25 μl of stop buffer to stop reaction. Collected data on Caliper.
Copied conversion % data from Caliper program. Converted conversion % values to percent inhibition values. Percent inhibition=(max−conversion %)/(max−min)*100, where “max” means the conversion % of DMSO control and “min” means the conversion % of no enzyme control.
The compound numbers correspond to the compound numbers in Table 1. […] “NA” stands for “not assayed.”
Broadly, the IC50 is the concentration needed to halve the response being measured. For `CN(Cc1c(F)cccc1Cl)[C@H]1CC[C@H](Nc2ncnc3sc4c(c23)CCC4)CC1` [Compound I-99, 1-N-[(2-chloro-6-fluorophenyl)methyl]-1-N-methyl-4-N-[7-thia-9,11-diazatricyclo[6.4.0.0^[2,6]]dodeca-1(8),2(6),9,11-tetraen-12-yl]cyclohexane-1,4-diamine], the IC50 was less than 5 µM.
The same measure, in the same setting: next, `CC1(C)CCc2sc3ncnc(N[C@H]4CC[C@H](N)CC4)c3c2C1` [Compound I-38, trans-N^1-(6,6-dimethyl-5,6,7,8-tetrahydrobenzo[4,5]thieno[2,3-d]pyrimidin-4-yl)cyclohexane-1,4-diamine]: less than 5 µM; `CN[C@H]1CC[C@H](Nc2ncnc3sc4c(c23)CCC4)CC1` [Compound I-34, trans-N^1-(6,7-dihydro-5H-cyclopenta[4,5]thieno[2,3-d]pyrimidin-4-yl)-N^4-methylcyclohexane-1,4-diamine]: less than 5 µM; `c1nc(N[C@H]2CC[C@@H](N3CCC3)CC2)c2c3c(sc2n1)CCC3` [Compound I-159, N-((1s,4s)-4-(azetidin-1-yl)cyclohexyl)-6,7-dihydro-5H-cyclopenta[4,5]thieno[2,3-d]pyrimidin-4-amine]: 20 to 50 µM.
On the same count and under the same terms, next, `O=C(O)CN[C@H]1CC[C@H](Oc2ncnc3sc4c(c23)CCC4)CC1` [Compound I-68, 2-((trans-4-((6,7-dihydro-5H-cyclopenta[4,5]thieno[2,3-d]pyrimidin-4-yl)oxy)cyclohexyl)amino)acetic acid]: 5 to 20 µM; `CC1CCc2c(sc3ncnc(N4CCC5(CC4)NC(=O)NC5=O)c23)C1` (stereo not drawn) [Compound I-28]: 5 to 20 µM; `NCC1CCN(c2ncnc3sc4c(c23)CCC4)CC1` [Compound I-63]: 5 to 20 µM.
Consider `CN(Cc1cccc(C(N)=O)c1)[C@H]1CC[C@H](Nc2ncnc3sc4c(c23)CCC4)CC1` [Compound I-166, 3-((((1r,4r)-4-((6,7-dihydro-5H-cyclopenta[4,5]thieno[2,3-d]pyrimidin-4-yl)amino)cyclohexyl)(methyl)amino)methyl)benzamide], for which the 50% inhibitory concentration (IC50) is less than 5 µM.
Same read-out and setting: next, `CN(CC(=O)Nc1cccnc1)[C@H]1CC[C@H](Nc2ncnc3sc4c(c23)CCC4)CC1` [Compound I-126, 2-(((1r,4r)-4-((6,7-dihydro-5H-cyclopenta[4,5]thieno[2,3-d]pyrimidin-4-yl)amino)cyclohexyl)(methyl)amino)-N-(pyridin-3-yl)acetamide]: less than 5 µM.
Same read-out and setting: the figure for `CCC1CCc2c(sc3ncnc(N4CCN(C)CC4)c23)C1` (stereo not drawn) [Compound I-16] is 5 to 20 µM; for `CN(Cc1ccco1)[C@H]1CC[C@H](Nc2ncnc3sc4c(c23)CCC4)CC1` [Compound I-101, 1-N-(furan-2-ylmethyl)-1-N-methyl-4-N-[7-thia-9,11-diazatricyclo[6.4.0.0^[2,6]]dodeca-1(8),2(6),9,11-tetraen-12-yl]cyclohexane-1,4-diamine] it is less than 5 µM.
Same read-out and setting: the figure for `O=C(CN(CC(=O)N1CCCC1)[C@H]1CC[C@H](Oc2ncnc3sc4c(c23)CCC4)CC1)N1CCCC1` [Compound I-137, trans-2-[[2-oxo-2-(pyrrolidin-1-yl)ethyl](4-[7-thia-9,11-diazatricyclo[6.4.0.0[2,6]]dodeca-1(8),2(6),9,11-tetraen-12-yloxy]cyclohexyl)amino]-1-(pyrrolidin-1-yl)ethan-1-one] is 5 to 20 µM; for `CCC1CCc2c(sc3ncnc(N[C@H]4CC[C@H](N)CC4)c23)C1` (stereo partly drawn) [Compound I-39, trans-N^1-(7-ethyl-5,6,7,8-tetrahydrobenzo[4,5]thieno[2,3-d]pyrimidin-4-yl)cyclohexane-1,4-diamine] it is less than 5 µM.
In the case of `Cc1sc2ncnc(N3CCC(C(=O)Nc4ccc(C#N)c(Cl)c4)CC3)c2c1C` [Compound I-31], the IC50 is 5 to 20 µM.
On the same count and under the same terms, next, `CCC1CCc2c(sc3ncnc(N4CCC(C(=O)NC)CC4)c23)C1` (stereo not drawn) [Compound I-13]: 5 to 20 µM; `OCC(CO)Nc1ncnc2sc3c(c12)CCC3` [Compound I-145]: 20 to 50 µM; `O[C@H]1CC[C@H](Nc2ncnc3sc4c(c23)CCCC4)CC1` [Compound I-4, trans-4-((5,6,7,8-tetrahydrobenzo[4,5]thieno[2,3-d]pyrimidin-4-yl)amino)cyclohexanol]: 5 to 20 µM.
Still for that read-out and setting: next, `CCN[C@H]1CC[C@H](Nc2ncnc3sc4c(c23)CCC4)CC1` [Compound I-71, trans-N^1-(6,7-dihydro-5H-cyclopenta[4,5]thieno[2,3-d]pyrimidin-4-yl)-N^4-ethylcyclohexane-1,4-diamine]: less than 5 µM; `NC1CCN(c2ncnc3sc4c(c23)CCC4)CC1` [Compound I-9]: 20 to 50 µM; `O[C@@H]1CCC[C@H](Nc2ncnc3sc4c(c23)CCC4)C1` (relative stereo) [Compound I-21, cis-3-((6,7-dihydro-5H-cyclopenta[4,5]thieno[2,3-d]pyrimidin-4-yl)amino)cyclohexanol]: 5 to 20 µM.
Same read-out and setting: the figure for `CN[C@H]1CC[C@H](Nc2ncnc3sc4c(c23)CC(C)(C)CC4)CC1` [Compound I-41, trans-N^1-(6,6-dimethyl-5,6,7,8-tetrahydrobenzo[4,5]thieno[2,3-d]pyrimidin-4-yl)-N^4-methylcyclohexane-1,4-diamine] is less than 5 µM; for `CN(C)CC1CCN(c2ncnc3sc4c(c23)CCC4)CC1` [Compound I-69] it is more than 50 µM; for `O[C@H]1CCC[C@H](Nc2ncnc3sc4c(c23)CCC4)C1` (relative stereo) [Compound I-22, trans-3-((6,7-dihydro-5H-cyclopenta[4,5]thieno[2,3-d]pyrimidin-4-yl)amino)cyclohexanol] it is 5 to 20 µM.
For `CNCC1CCN(c2ncnc3sc4c(c23)CCC4)CC1` [Compound I-62], the IC50 lay in the range of 5 to 20 µM.
The same measure, in the same setting: next, `CC1CCc2c(sc3ncnc(N4CCN(S(=O)(=O)c5ccc(C(C)(C)C)cc5)CC4)c23)C1` (stereo not drawn) [Compound I-23]: 20 to 50 µM; `CCC1CCc2c(sc3ncnc(N[C@H]4CC[C@H](N(C)C)CC4)c23)C1` (stereo partly drawn) [Compound I-55, trans-N^1-(7-ethyl-5,6,7,8-tetrahydrobenzo[4,5]thieno[2,3-d]pyrimidin-4-yl)-N^4,N^4-dimethylcyclohexane-1,4-diamine]: less than 5 µM.
Take `CN(CC(=O)N1CCOCC1)[C@H]1CC[C@H](Nc2ncnc3sc4c(c23)CCC4)CC1` [Compound I-130, 2-[methyl[4-([7-thia-9,11-diazatricyclo[6.4.0.0[2,6]]dodeca-1(12),2(6),8,10-tetraen-12-yl]amino)cyclohexyl]amino]-1-(morpholin-4-yl)ethan-1-one]: the IC50 was less than 5 µM.
Still for that read-out and setting: the figure for `CC1CCc2c(sc3ncnc(N4CCC(C(N)=O)CC4)c23)C1` (stereo not drawn) [Compound I-3] is 5 to 20 µM.
On to `N[C@H]1CC[C@H](Nc2ncnc3sc4c(c23)CCC4)CC1` [Compound I-10, trans-N^1-(6,7-dihydro-5H-cyclopenta[4,5]thieno[2,3-d]pyrimidin-4-yl)cyclohexane-1,4-diamine], for which the IC50 was less than 5 µM.

The same experiment, now with this note: IRAK-4 activity inhibition IC50, 3.5 nM IRAK4, 1.5 μM Peptide 8, 37 μM ATP, 28° C. 40 minutes.
For the compound `C[N+](C)(C)[C@H]1CC[C@H](Nc2ncnc3sc4c(c23)CCC4)CC1` [Compound I-139, (1r,4r)-4-((6,7-dihydro-5H-cyclopenta[4,5]thieno[2,3-d]pyrimidin-4-yl)amino)-N,N,N-trimethylcyclohexanaminium iodide], the IC50 fell in the range of 20 to 50 µM.

Values taken from US9340554B2, “IRAK inhibitors and uses thereof” (Nimbus Iris, Inc., priority 2011, dated 2016).
